Holding throughout (type): in vivo
The test system of assay [1] is corn planthopper (Peregrinus maidis (Ashmead)). As to the kind of experiment: whole plant or invertebrate. Conditions: Peregrinus maidis, 144 h, 6 days; for mortality at 50 ppm: sprayed at 50 ppm; for mortality at 250 ppm: sprayed at 250 ppm; for mortality at 10 ppm: sprayed at 10 ppm. The method, then:
(§1) Test compounds were formulated using a solution containing 10% acetone, […] and 300 ppm Activator 909 non-ionic surfactant (Loveland Products, Loveland, Colorado, USA). The formulated compounds were applied in 1 mL of liquid through an atomizer nozzle positioned 1.27 cm (0.5 inches) above the top of each test unit. Test compounds were sprayed at the rates indicated, and each test was replicated three times.
For evaluating control of corn planthopper (Peregrinus maidis (Ashmead)) through contact and/or systemic means, the test unit consisted of a small open container with a 3-4-day-old corn (maize) plant inside. White sand was added to the top of the soil prior to application of the test compound.
Test compounds were formulated and sprayed at 250 and/or 50 ppm and/or 10 ppm. After spraying of the formulated test compound, the test units were allowed to dry for 1 h before they were post-infested with ˜15-20 nymphs (18-to-21-day-old). A black, screened cap was placed on the top of each test unit, and the test units were held for 6 days in a growth chamber at 22-24° C. and 50-70% relative humidity. Each test unit was then visually assessed for insect mortality.

Assay [2] concerns green peach aphid (Myzus persicae (Sulzer)). Briefly: Test D: control of green peach aphid on radish plant, spray. The settings on record: Myzus persicae, 144 h, 6 days; for mortality at 50 ppm: sprayed at 50 ppm; for mortality at 250 ppm: sprayed at 250 ppm. The protocol:
as §1
For evaluating control of green peach aphid (Myzus persicae (Sulzer)) through contact and/or systemic means, the test unit consisted of a small open container with a 12-15-day-old radish plant inside. This was pre-infested by placing on a leaf of the test plant 30-40 aphids on a piece of leaf excised from a culture plant (cut-leaf method). The aphids moved onto the test plant as the leaf piece desiccated. After pre-infestation, the soil of the test unit was covered with a layer of sand.
[…] After spraying of the formulated test compound, each test unit was allowed to dry for 1 hour and then a black, screened cap was placed on top. The test units were held for 6 days in a growth chamber at 19-21° C. and 50-70% relative humidity. Each test unit was then visually assessed for insect mortality.

Assay [3] deals with cotton melon aphid (Aphis gossypii (Glover)). Briefly: whole plant or invertebrate. The settings on record: Aphis gossypii, 144 h, 6 days; for mortality at 250 ppm: sprayed at 250 ppm; for mortality at 50 ppm: sprayed at 50 ppm. The method, then: as §1
[…] This was pre-infested with 30-40 insects on a piece of leaf according to the cut-leaf method, and the soil of the test unit was covered with a layer of sand.
Test compounds were formulated and sprayed at 250 and/or 50 ppm. After spraying, the test units were maintained in a growth chamber for 6 days at 19° C. and 70% relative humidity. Each test unit was then visually assessed for insect mortality.

Each structure is given as a SMILES string. Some results are limits rather than exact numbers.

On to `Fc1cncc(-n2cncn2)c1C(F)c1ccc(SC(F)(F)F)cc1` (stereo not drawn) [Compound 2], for which the mortality at 50 ppm in assay [1] and in assay [2] was at least 80% in each case. In addition, the mortality at 250 ppm in assay [1], in assay [2] and in assay [3] was at least 80% in each case.

In assay [1], `Cc1ccn(-c2cncc(F)c2C(F)c2ccc(SC(F)(F)F)cc2)n1` (stereo not drawn) [Compound 5] gave a mortality at 50 ppm of at least 80% and a mortality at 250 ppm of at least 80%. The compound further had a mortality at 250 ppm in assay [2] of at least 80%.

In assay [1], `Cc1cnn(-c2cncc(F)c2C(F)c2ccc(SC(F)(F)F)cc2)c1` (stereo not drawn) [Compound 6] registered a mortality at 50 ppm of at least 80% and a mortality at 250 ppm of at least 80%.

In assay [1], `FC(c1ccc(OC(F)(F)F)cc1)c1ccncc1-n1ccnn1` (stereo not drawn) [Compound 10] displayed a mortality at 50 ppm of at least 80% and a mortality at 250 ppm of at least 80%.

Consider `COC(c1ccc(OC(F)(F)F)cc1)c1c(Cl)cncc1-n1nccn1` (stereo not drawn) [Compound 16], for which the mortality at 50 ppm in assay [1], in assay [2] and in assay [3] was at least 80% throughout. For the same compound, the mortality at 250 ppm in assay [1], in assay [2] and in assay [3] was at least 80% each time.

In the case of `Fc1cncc(-c2ccc[nH]2)c1C(F)c1ccc(OC(F)(F)F)cc1` (stereo not drawn) [Compound 26], in assay [1], the mortality at 50 ppm is at least 80% and the mortality at 250 ppm is at least 80%.

On to `Cc1cncc(-n2nccn2)c1C(F)c1ccc(OC(F)(F)F)cc1` (stereo not drawn) [Compound 38], for which, in assay [1], the mortality at 10 ppm was at least 80%. In addition, the mortality at 50 ppm in assay [1] and in assay [3] was at least 80% throughout. The mortality at 250 ppm in assay [1], in assay [2] and in assay [3] was at least 80% in each case.

In assay [1], `Fc1cncc(-c2nc[nH]n2)c1C(F)c1ccc(OC(F)(F)F)cc1` (stereo not drawn) [Compound 40] registered a mortality at 50 ppm of at least 80%.

With `Fc1cncc(-c2ccsc2)c1C(F)c1ccc(OC(F)(F)F)cc1` (stereo not drawn) [Compound 46], in assay [1], the mortality at 10 ppm was at least 80% and the mortality at 50 ppm is at least 80%.

Take `Fc1cncc(-c2cscn2)c1C(F)c1ccc(OC(F)(F)F)cc1` (stereo not drawn) [Compound 49]: in assay [1], the mortality at 10 ppm is at least 80%, the mortality at 50 ppm is at least 80% and the mortality at 250 ppm is at least 80%. In assay [3], this compound registered a mortality at 250 ppm of at least 80%.

In assay [3], `COC(c1ccc(OC(F)(F)F)cc1)c1c(Cl)cncc1-n1cccn1` (stereo not drawn) [Compound 52] gave a mortality at 250 ppm of at least 80%.

In assay [2], `O=S(=O)(c1ccc(C(F)c2c(F)cncc2-n2nccn2)cc1)C(F)(F)F` (stereo not drawn) [Compound 54] registered a mortality at 50 ppm of at least 80% and a mortality at 250 ppm of at least 80%. In assay [3], this compound displayed a mortality at 50 ppm of at least 80% and a mortality at 250 ppm of at least 80%.

`CCn1ccc(-c2cncc(F)c2C(F)c2ccc(OC(F)(F)F)cc2)n1` (stereo not drawn) [Compound 57]: in assay [1], the mortality at 50 ppm is at least 80%. In assay [3], this compound had a mortality at 250 ppm of at least 80%.

Turning to `O=S(=O)(c1ccc(C(F)c2c(Br)cncc2-n2nccn2)cc1)C(F)(F)F` (stereo not drawn) [Compound 64], the mortality at 50 ppm in assay [1] is at least 80%. The mortality at 250 ppm in assay [3] is at least 80%.

The compound `COC(c1ccc(OC(F)(F)F)cc1)c1c(Br)cncc1-n1nccn1` (stereo not drawn) [Compound 65] displayed a mortality at 50 ppm in assay [1] of at least 80%.

Take `FC(c1ccc(SC(F)(F)F)cc1)c1ccncc1-n1ccnn1` (stereo not drawn) [Compound 68]: in assay [2], the mortality at 250 ppm is at least 80%. In assay [3], this compound gave a mortality at 50 ppm of at least 80% and a mortality at 250 ppm of at least 80%.

On to `COC(c1ccc([S+]([O-])C(F)(F)F)cc1)c1c(F)cncc1-n1cccn1` (stereo not drawn) [Compound 72], for which the mortality at 250 ppm in assay [2] and in assay [3] was at least 80% in each case.

For `[O-][S+](c1ccc(C(F)c2c(F)cncc2-n2cccn2)cc1)C(F)(F)F` (stereo not drawn) [Compound 73], in assay [3], the mortality at 50 ppm is at least 80% and the mortality at 250 ppm was at least 80%.

Take `COC(c1ccc([S+]([O-])C(F)(F)F)cc1)c1c(F)cncc1-n1cncn1` (stereo not drawn) [Compound 74]: the mortality at 50 ppm in assay [2] and in assay [3] was at least 80% throughout. Further, the mortality at 250 ppm in assay [2] and in assay [3] was at least 80% each time.

As for `COC(c1ccc(SC(F)(F)F)cc1)c1c(F)cncc1-c1nccs1` (stereo not drawn) [Compound 75], the mortality at 250 ppm in assay [1] and in assay [3] was at least 80% in each case.

In assay [1], `COC(c1ccc(SC(F)(F)F)cc1)c1c(F)cncc1-c1ncco1` (stereo not drawn) [Compound 76] showed a mortality at 50 ppm of at least 80% and a mortality at 250 ppm of at least 80%. Moreover, in assay [3], the mortality at 50 ppm was at least 80% and the mortality at 250 ppm was at least 80%.

`COC(c1ccc(SC(F)(F)F)cc1)c1c(F)cncc1-c1cc(C)no1` (stereo not drawn) [Compound 82] registered a mortality at 250 ppm in assay [1] of at least 80%.

In assay [1], `FC(c1ccc(SC(F)(F)F)cc1)c1c(Br)cncc1-n1cccn1` (stereo not drawn) [Compound 85] gave a mortality at 50 ppm of at least 80% and a mortality at 250 ppm of at least 80%. In assay [3], this compound yielded a mortality at 50 ppm of at least 80% and a mortality at 250 ppm of at least 80%.

In turn, `FC(c1ccc(SC(F)(F)F)cc1)c1c(Br)cncc1-n1ccnn1` (stereo not drawn) [Compound 87] returned a mortality at 250 ppm in assay [2] of at least 80%.

On to `[O-][S+](c1ccc(C(F)c2c(I)cncc2-n2nccn2)cc1)C(F)(F)F` (stereo not drawn) [Compound 97], for which the mortality at 250 ppm in assay [2] and in assay [3] was at least 80% throughout. The compound also gave a mortality at 50 ppm in assay [3] of at least 80%.

With `Fc1cncc(C2OCCCO2)c1C(F)c1ccc(SC(F)(F)F)cc1` (stereo not drawn) [Compound 98], in assay [1], the mortality at 10 ppm was at least 80%, the mortality at 50 ppm was at least 80% and the mortality at 250 ppm was at least 80%.

In assay [3], `FC(c1ccc(SC(F)(F)F)cc1)c1c(Cl)cncc1-n1cccn1` (stereo not drawn) [Compound 102] had a mortality at 50 ppm of at least 80% and a mortality at 250 ppm of at least 80%.

In assay [1], `FC(c1ccc(SC(F)(F)F)cc1)c1c(Cl)cncc1-c1ncno1` (stereo not drawn) [Compound 106] yielded a mortality at 10 ppm of at least 80%, a mortality at 50 ppm of at least 80% and a mortality at 250 ppm of at least 80%. In assay [3], the mortality at 50 ppm is at least 80% and the mortality at 250 ppm is at least 80%.

`CC(C)(C)c1ccc(C(F)c2c(Cl)cncc2-n2nccn2)cc1` (stereo not drawn) [Compound 110]: in assay [1], the mortality at 10 ppm was at least 80%, the mortality at 50 ppm is at least 80% and the mortality at 250 ppm is at least 80%.

In assay [1], `Fc1cncc(-c2cccs2)c1C(F)c1ccc(SC(F)(F)F)cc1` (stereo not drawn) [Compound 111] came in with a mortality at 10 ppm of at least 80%, a mortality at 50 ppm of at least 80% and a mortality at 250 ppm of at least 80%. In assay [3], the mortality at 50 ppm was at least 80% and the mortality at 250 ppm was at least 80%.

In assay [1], `Cc1sccc1-c1cncc(F)c1C(F)c1ccc(SC(F)(F)F)cc1` (stereo not drawn) [Compound 113] yielded a mortality at 10 ppm of at least 80%, a mortality at 50 ppm of at least 80% and a mortality at 250 ppm of at least 80%. Further, in assay [3], the mortality at 50 ppm is at least 80% and the mortality at 250 ppm was at least 80%.

In assay [1], `Cc1cscc1-c1cncc(F)c1C(F)c1ccc(SC(F)(F)F)cc1` (stereo not drawn) [Compound 114] showed a mortality at 10 ppm of at least 80%, a mortality at 50 ppm of at least 80% and a mortality at 250 ppm of at least 80%.

With `COC(c1ccc(OC(F)(F)F)cc1)c1c(F)cncc1-c1ncno1` (stereo not drawn) [Compound 138], in assay [1], the mortality at 50 ppm was at least 80% and the mortality at 250 ppm is at least 80%.

In assay [1], `COC(c1ccc(C(C)(C)C)cc1)c1c(F)cncc1-c1ncno1` (stereo not drawn) [Compound 139] showed a mortality at 50 ppm of at least 80% and a mortality at 250 ppm of at least 80%.
